Values joined by “and” are separate entries in the source; they are usually repeats but may differ in a detail not shown here. Equal values may be shown once. Inconclusive results and toxic doses are left out. No stated cut-off is given here; in the data, active means T/C of 150% or more; inactive means T/C below 125%.
System: L1210 leukemia ip in BDF1 mice, survival T/C
Assay: NCI In Vivo Anticancer Drug Screen. Data for tumor model L1210 Leukemia (intraperitoneal) in B6D2F1 (BDF1) mice
Conditions: endpoint: mean survival time, higher = longer survival
In short: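 Antitumor effect is assessed in tumor-bearing animals. Survival in the compound arm is compared with a vehicle-dosed control arm and expressed as their quotient.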

[1] = dose: 100.0 mg/kg/injection, schedule: Q04DX003 (ip), vehicle: Klucel (hydroxypropylcellulose) (HPC)
[2] = dose: 200.0 mg/kg/injection, schedule: Q04DX003 (ip), vehicle: Klucel (hydroxypropylcellulose) (HPC)
[3] = dose: 400.0 mg/kg/injection, schedule: Q04DX003 (ip), vehicle: Klucel (hydroxypropylcellulose) (HPC)
[4] = dose: 100.0 mg/kg/injection, schedule: Q01DX001 (ip), vehicle: saline
[5] = dose: 200.0 mg/kg/injection, schedule: Q01DX001 (ip), vehicle: saline
[6] = dose: 400.0 mg/kg/injection, schedule: Q01DX001 (ip), vehicle: saline
[7] = dose: 100.0 mg/kg/injection, schedule: Q01DX009 (ip), vehicle: Klucel (hydroxypropylcellulose) (HPC)
[8] = dose: 200.0 mg/kg/injection, schedule: Q01DX009 (ip), vehicle: Klucel (hydroxypropylcellulose) (HPC)
[9] = dose: 400.0 mg/kg/injection, schedule: Q01DX009 (ip), vehicle: Klucel (hydroxypropylcellulose) (HPC)
[10] = dose: 100.0 mg/kg/injection, schedule: Q04DX002 (ip), vehicle: Klucel (hydroxypropylcellulose) (HPC)
[11] = dose: 200.0 mg/kg/injection, schedule: Q04DX002 (ip), vehicle: Klucel (hydroxypropylcellulose) (HPC)
[12] = dose: 400.0 mg/kg/injection, schedule: Q04DX002 (ip), vehicle: Klucel (hydroxypropylcellulose) (HPC)
[13] = dose: 25.0 mg/kg/injection, schedule: Q01DX009 (ip), vehicle: saline with Tween-80
[14] = dose: 50.0 mg/kg/injection, schedule: Q01DX009 (ip), vehicle: saline with Tween-80
[15] = dose: 100.0 mg/kg/injection, schedule: Q01DX009 (ip), vehicle: saline with Tween-80
[16] = dose: 100.0 mg/kg/injection, schedule: Q04DX003 (ip), vehicle: saline

Measured: T/C

CCOC(=O)c1cc2cc([N+](=O)[O-])ccc2oc1=O
inactive: [1] 93 % of control | [2] 93 % of control | [3] 94 % of control

Brc1ccc(SSc2ccc(Br)cc2)cc1
inactive: [4] 110 % of control | [5] 95 % of control | [6] 95 % of control

CN(C)c1ccc(C(=S)c2ccc(N(C)C)nc2)cn1
inactive: [7] 102 % of control | [1] 98 % of control | [8] 88 % of control | [2] 106 % of control | [9] 98 % of control | [3] 104 % of control

Cc1ccnc(NC(=O)Nc2cc(F)ccc2F)c1
inactive: [7] 92 % of control and 103 % of control | [10] 101 % of control and 90 % of control | [1] 97 % of control | [8] 92 % of control and 89 % of control | [11] 90 % of control | [2] 93 % of control | [9] 94 % of control and 98 % of control | [12] 95 % of control and 90 % of control | [3] 87 % of control

CC(=O)N/N=C/C=C/c1ccccc1
inactive: [13] 95 % of control | [14] 103 % of control

O=C(C[n+]1ccccc1)N/N=C/c1ccc(Cl)cc1
inactive: [13] 98 % of control | [14] 96 % of control | [15] 100 % of control

Cc1ccc(S(=O)(=O)N(CCCc2c(C)ncnc2Cl)c2ccccc2)cc1
inactive: dose: 50.0 mg/kg/injection, schedule: Q01DX001 (ip), vehicle: saline 101 % of control | [4] 92 % of control | [5] 98 % of control | [6] 95 % of control

CCCCCCCCCCCC(=O)Nc1ccc(O)cc1
inactive: dose: 25.0 mg/kg/injection, schedule: Q01DX009 (ip), vehicle: gum acacia 93 % of control | dose: 50.0 mg/kg/injection, schedule: Q01DX009 (ip), vehicle: gum acacia 93 % of control | dose: 100.0 mg/kg/injection, schedule: Q01DX009 (ip), vehicle: gum acacia 96 % of control | dose: 100.0 mg/kg/injection, schedule: Q04DX003 (ip), vehicle: gum acacia 88 % of control | dose: 200.0 mg/kg/injection, schedule: Q01DX009 (ip), vehicle: gum acacia 92 % of control | dose: 200.0 mg/kg/injection, schedule: Q04DX003 (ip), vehicle: gum acacia 86 % of control | dose: 400.0 mg/kg/injection, schedule: Q01DX009 (ip), vehicle: gum acacia 92 % of control | dose: 400.0 mg/kg/injection, schedule: Q04DX003 (ip), vehicle: gum acacia 95 % of control

Cc1ccc(OCCOc2ccc(C)c(CC(Cl)(Cl)Cl)c2)cc1CC(Cl)(Cl)Cl
inactive: dose: 100.0 mg/kg/injection, schedule: Q01DX001 (ip), vehicle: DMSO 88 % of control | dose: 200.0 mg/kg/injection, schedule: Q01DX001 (ip), vehicle: DMSO 89 % of control | dose: 400.0 mg/kg/injection, schedule: Q01DX001 (ip), vehicle: DMSO 88 % of control

Cc1ccc(CC(=O)O)cc1C
inactive: [15] 101 % of control | dose: 200.0 mg/kg/injection, schedule: Q01DX009 (ip), vehicle: saline with Tween-80 104 % of control | dose: 400.0 mg/kg/injection, schedule: Q01DX009 (ip), vehicle: saline with Tween-80 102 % of control

Cc1c(C=O)[nH]c(=O)[nH]c1=O
inactive: [4] 90 % of control | [5] 102 % of control | [6] 96 % of control

CN(C)C(=S)SCC(N)=O
inactive: dose: 100.0 mg/kg/injection, schedule: Q01DX001 (ip), vehicle: Klucel (hydroxypropylcellulose) (HPC) 103 % of control | dose: 200.0 mg/kg/injection, schedule: Q01DX001 (ip), vehicle: Klucel (hydroxypropylcellulose) (HPC) 100 % of control | dose: 400.0 mg/kg/injection, schedule: Q01DX001 (ip), vehicle: Klucel (hydroxypropylcellulose) (HPC) 103 % of control

COC(=O)C1(Br)CCC1(Br)C(=O)OC (stereo not given)
inactive: dose: 100.0 mg/kg/injection, schedule: Q01DX009 (ip), vehicle: saline 100 % of control | [16] 93 % of control | dose: 200.0 mg/kg/injection, schedule: Q01DX009 (ip), vehicle: saline 100 % of control | dose: 200.0 mg/kg/injection, schedule: Q04DX003 (ip), vehicle: saline 100 % of control | dose: 400.0 mg/kg/injection, schedule: Q01DX009 (ip), vehicle: saline 98 % of control | dose: 400.0 mg/kg/injection, schedule: Q04DX003 (ip), vehicle: saline 102 % of control

CCC(C)(C1CCC(=O)CC1)C1CCC(=O)CC1
inactive: [4] 94 % of control | [5] 100 % of control | [6] 93 % of control

CC1(C)N=C(N)N=C(N)N1c1cccc([N+](=O)[O-])c1
inactive: dose: 25.0 mg/kg/injection, schedule: Q04DX002 (ip), vehicle: saline 93 % of control | dose: 25.0 mg/kg/injection, schedule: Q04DX003 (ip), vehicle: saline 106 % of control | dose: 50.0 mg/kg/injection, schedule: Q04DX002 (ip), vehicle: saline 96 % of control | dose: 50.0 mg/kg/injection, schedule: Q04DX003 (ip), vehicle: saline 105 % of control | dose: 100.0 mg/kg/injection, schedule: Q04DX002 (ip), vehicle: saline 91 % of control | [16] 98 % of control and 111 % of control

COC(=O)c1ccc(OCc2ccccc2)cc1
inactive: [1] 103 % of control | [2] 100 % of control | [3] 92 % of control

O=C(COc1ccc(Cl)cc1Cl)OC(=O)COc1ccc(Cl)cc1Cl
inactive: dose: 12.5 mg/kg/injection, schedule: Q01DX009 (ip), vehicle: carboxymethylcellulose (CMC) 100 % of control and 106 % of control | dose: 25.0 mg/kg/injection, schedule: Q01DX009 (ip), vehicle: carboxymethylcellulose (CMC) 102 % of control and 103 % of control | dose: 50.0 mg/kg/injection, schedule: Q01DX001 (ip), vehicle: carboxymethylcellulose (CMC) 92 % of control | dose: 50.0 mg/kg/injection, schedule: Q04DX003 (ip), vehicle: carboxymethylcellulose (CMC) 92 % of control | dose: 100.0 mg/kg/injection, schedule: Q01DX001 (ip), vehicle: carboxymethylcellulose (CMC) 97 % of control | dose: 100.0 mg/kg/injection, schedule: Q01DX009 (ip), vehicle: carboxymethylcellulose (CMC) 94 % of control | [10] 95 % of control | dose: 100.0 mg/kg/injection, schedule: Q04DX002 (ip), vehicle: carboxymethylcellulose (CMC) 97 % of control and 100 % of control | dose: 100.0 mg/kg/injection, schedule: Q04DX003 (ip), vehicle: carboxymethylcellulose (CMC) 94 % of control | dose: 200.0 mg/kg/injection, schedule: Q01DX001 (ip), vehicle: carboxymethylcellulose (CMC) 89 % of control | [11] 95 % of control | dose: 200.0 mg/kg/injection, schedule: Q04DX002 (ip), vehicle: carboxymethylcellulose (CMC) 97 % of control and 98 % of control | [12] 98 % of control

CN/N=C/c1ccc([N+](=O)[O-])cc1
inactive: dose: 25.0 mg/kg/injection, schedule: Q04DX002 (ip), vehicle: DMSO 96 % of control | dose: 50.0 mg/kg/injection, schedule: Q04DX002 (ip), vehicle: DMSO 96 % of control | dose: 100.0 mg/kg/injection, schedule: Q04DX002 (ip), vehicle: DMSO 96 % of control and 98 % of control | dose: 200.0 mg/kg/injection, schedule: Q04DX002 (ip), vehicle: DMSO 88 % of control

Reference: PubChem BioAssay AID248 (DTP/NCI, 2004)
